From patent publication US20230397605A1, “METHODS FOR IMPROVING PLANT GROWTH AND CROP YIELD BY USING COMPOUNDS OF TRISULPHIDE OR TETRASULPHIDE” (UNIVERSITY OF IOWA RESEARCH FOUNDATION, priority 2020, published 2023)

Key:
Lettuce = assay: Growth of lettuce in nutrient-film technique hydroponic system (fresh weight of leafy head at harvest); assay type: in vivo, lettuce (buttercrunch); details: treatment day 42, harvest day 58, N=28 (control mean 36.13 g)
Experimental: Lettuce was grown in a nutrient-film technique hydroponic system. The seedlings were grown under LED light film with a 14 hour on time, and a 10 hour off time. The lettuce seeds were purchased from Johnny Selected Seeds. The seed variety was buttercrunch, ID 435 g. The nutrients used were Chem-Gro lettuce formula NPK with micronutrients. Calcium nitrate and magnesium sulfate were also added to the nutrients. The nutrients and the NAC-trisulfide were added to the nutrient bucket, Which was a 4 gallon bucket that recirculated the nutrient solution through the entire NFT system to bathe the roots of the lettuce plants with nutrients and water. An air stone with air pump was used in each nutrient bucket to provide aeration to the nutrient solution. […] The nutrient reservoirs were kept pH balanced and nutrient levels were kept steady. The nutrient loading measured in EC (electrical conductivity) would gradually increase as the water was consumed but would return to normal levels once water was added to return the buckets to the max volume of 4 gallons. The conductivity (EC) and pH were measured every 1 to 2 days. Nutrient was added as EC at 4 gallons would approach a value of 0.5 EC. The starting nutrient loading was 1.7 EC, The pH of the nutrient solution was balanced using phosphoric acid “pH down” solution. The pH of the nutrient solution ranged between 6.4-7.4.
The lettuce seeds were started in a separate flood tray. The seeds were sowed into an inert solid support (Oasis Horticubes) and the support absorbed water and nutrients like a sponge. The seedlings were then grown in the seeding hay for 33 days prior to transplant into the channels. At day 42. N-acteyl cysteine trisulfide (NAC trisulfide) was added to the nutrient of the lettuce plants. […]
The lettuce plants were harvested by cutting at the root boundary and discarding the roots along with the solid support. The leafy head of lettuce was then weighed to quantify the fresh weight of the lettuce reported in the graphs (see FIG. 1).

radish = details: cited from earlier work
lettuce plants = details: cited from earlier work
peas = details: cited from earlier work

Row | Structure (SMILES) | Fresh Weight (g) Mean (Lettuce; group 2, 0.2449 g/4 gal nutrient reservoir) [g] | Fresh Weight (g) Mean (Lettuce; group 3, 0.7475 g/4 gal nutrient reservoir) [g] | Fresh Weight (g) Mean (Lettuce; group 4, 1.6112 g/4 gal nutrient reservoir) [g] | harvest yield of radishes (radish; milligram loadings applied) | growth of plants (radish; radish) | growth of plants (lettuce plants) | growth of plants (peas)
1 | CC(=O)N[C@@H](CSSSC[C@H](NC(C)=O)C(=O)O)C(=O)O [NAC trisulfide, N-acetyl cysteine trisulfide] | 42.50 | 51.44 | 56.07 | – | – | – | –
2 | C1COCCN1.COc1ccc(P(=S)(S)N2CCOCC2)cc1 (stereo not shown) [GYY-4137] | – | – | – | doubled | increased the growth | increased the growth | increased the growth
